Literature values in article PMC9737391, “Trifluoromethylcinnamanilide Michael Acceptors for Treatment of Resistant Bacterial Infections” (International Journal of Molecular Sciences, 2022).

Assays:
MRSA = test system: MRSA; parameters: method as in ref 26, 51 = [26]; PMID 30087309; doi:10.3390/ijms19082318; 26. Pospisilova S. Kos J. Michnova H. Kapustikova I. Strharsky T. Oravec M. Moricz A.M. Bakonyi J. Kauerova T. Kollar P. Synthesis and spectrum of biological activities of novel N -arylcinnamamides In || [51]; 51. Pospisilova S. Kos J. Michnova H. Strharsky T. Cizek A. Jampilek J. N -Arylcinnamamides as antistaphylococcal agents Proceedings of the 4th International Electronic Conference on Medicinal Chemist; settings: against MRSA; cited from earlier work
staphylococcal biofilm = test system: staphylococcal biofilm; parameters: method as in ref 26, 51 = [26]; PMID 30087309; doi:10.3390/ijms19082318; 26. Pospisilova S. Kos J. Michnova H. Kapustikova I. Strharsky T. Oravec M. Moricz A.M. Bakonyi J. Kauerova T. Kollar P. Synthesis and spectrum of biological activities of novel N -arylcinnamamides In || [51]; 51. Pospisilova S. Kos J. Michnova H. Strharsky T. Cizek A. Jampilek J. N -Arylcinnamamides as antistaphylococcal agents Proceedings of the 4th International Electronic Conference on Medicinal Chemist; settings: cited from earlier work
M. tuberculosis H37Ra = test system: M. tuberculosis H37Ra; parameters: method as in ref 26 = [26]; PMID 30087309; doi:10.3390/ijms19082318; 26. Pospisilova S. Kos J. Michnova H. Kapustikova I. Strharsky T. Oravec M. Moricz A.M. Bakonyi J. Kauerova T. Kollar P. Synthesis and spectrum of biological activities of novel N -arylcinnamamides In; settings: average over the named compounds; cited from earlier work
M. tuberculosis = test system: M. tuberculosis; parameters: method as in ref 26 = [26]; PMID 30087309; doi:10.3390/ijms19082318; 26. Pospisilova S. Kos J. Michnova H. Kapustikova I. Strharsky T. Oravec M. Moricz A.M. Bakonyi J. Kauerova T. Kollar P. Synthesis and spectrum of biological activities of novel N -arylcinnamamides In; settings: MTT, at MIC values; cited from earlier work
S. aureus/MRSA = test system: S. aureus/MRSA; parameters: method as in ref 26, 51 = [26]; PMID 30087309; doi:10.3390/ijms19082318; 26. Pospisilova S. Kos J. Michnova H. Kapustikova I. Strharsky T. Oravec M. Moricz A.M. Bakonyi J. Kauerova T. Kollar P. Synthesis and spectrum of biological activities of novel N -arylcinnamamides In || [51]; 51. Pospisilova S. Kos J. Michnova H. Strharsky T. Cizek A. Jampilek J. N -Arylcinnamamides as antistaphylococcal agents Proceedings of the 4th International Electronic Conference on Medicinal Chemist; settings: cited from earlier work
[1] = test system: Plasmodium falciparum 3D7; parameters: method as in PMID 36431900; settings: read-out: IC50 against Plasmodium falciparum 3D7; cited from earlier work
NF-κB = test system: NF-κB; parameters: method as in PMID 31835703; settings: compared with prednisone; cited from earlier work

O=C(/C=C/c1ccccc1)Nc1cc(C(F)(F)F)cc(C(F)(F)F)c1 [3b]
effect in combination with ciprofloxacin (MRSA): synergistic effect
effect in combination with tetracycline (MRSA): synergistic effect
effect in combination with vancomycin (MRSA): additivity
effect on staphylococcal biofilm (staphylococcal biofilm): ability to inhibit the growth of staphylococcal biofilm and disrupted mature biofilm in concentrations close to MICs
average MIC against M. tuberculosis H37Ra (M. tuberculosis H37Ra): ~ 24 µM
inhibition of M. tuberculosis respiration (M. tuberculosis): 77%
bactericidal effect (S. aureus/MRSA): bactericidal effect in concentrations close to MICs

O=C(/C=C/c1ccccc1)Nc1cc(Cl)cc(Cl)c1 [3d]
average MIC against M. tuberculosis H37Ra (M. tuberculosis H37Ra): ~ 24 µM
inhibition of M. tuberculosis respiration (M. tuberculosis): 77%

O=C(/C=C/c1ccccc1)Nc1ccc(Br)cc1Cl [3f]
IC50 [1]: 580 nM

O=C(/C=C/c1ccccc1)Nc1cc(C(F)(F)F)ccc1Cl [3g]
anti-inflammatory potential (NF-κB inhibition) (NF-κB): comparable to that prednisone
